# Source: PubChem BioAssay (NCI)
#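 Five compound concentrations were applied to cells in 96-well plates for 48 hours; endpoints were derived by simple linear interpolation of the resulting dose-response curve. Here, GI50 denotes the concentration required for 50% inhibition of growth. At the TGI there is no net growth.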
# What was measured:
# Experiment in all cases: NCI tumour cell line growth inhibition, 48 h
# 786-0 renal = test system: 786-0 renal
# A498 renal = test system: A498 renal
# A549 NSCLC = test system: A549 NSCLC
# ACHN renal = test system: ACHN renal
# CAKI-1 renal = test system: CAKI-1 renal
# CCRF-CEM leukemia = test system: CCRF-CEM leukemia
# COLO 205 colon = test system: COLO 205 colon
# DLD-1 colon = test system: DLD-1 colon
# DMS 114 small cell lung = test system: DMS 114 small cell lung
# DMS 273 small cell lung = test system: DMS 273 small cell lung
# EKVX NSCLC = test system: EKVX NSCLC
# HCC-2998 colon = test system: HCC-2998 colon
# HCT-116 colon = test system: HCT-116 colon
# HCT-15 colon = test system: HCT-15 colon
# HL-60(TB) leukemia = test system: HL-60(TB) leukemia
# HOP-18 NSCLC = test system: HOP-18 NSCLC
# HOP-62 NSCLC = test system: HOP-62 NSCLC
# HOP-92 NSCLC = test system: HOP-92 NSCLC
# HT29 colon = test system: HT29 colon
# IGROV1 ovarian = test system: IGROV1 ovarian
# K-562 leukemia = test system: K-562 leukemia
# KM12 colon = test system: KM12 colon
# KM20L2 colon = test system: KM20L2 colon
# LOX IMVI melanoma = test system: LOX IMVI melanoma
# LXFL 529 NSCLC = test system: LXFL 529 NSCLC
# M14 melanoma = test system: M14 melanoma
# M19-MEL melanoma = test system: M19-MEL melanoma
# MALME-3M melanoma = test system: MALME-3M melanoma
# MOLT-4 leukemia = test system: MOLT-4 leukemia
structure (smiles),measurement,setting,value
CC1(C)COC(c2ccc(C(F)(F)F)cc2C(O)c2ccc3ccccc3c2)=N1 (stereo not drawn),GI50,786-0 renal,> 100 µM
same,TGI,786-0 renal,> 100 µM
same,GI50,A498 renal,> 100 µM
same,TGI,A498 renal,> 100 µM
same,GI50,A549 NSCLC,> 10 µM
same,TGI,A549 NSCLC,> 100 µM
same,GI50,ACHN renal,> 100 µM
same,TGI,ACHN renal,> 100 µM
same,GI50,CAKI-1 renal,> 10 µM
same,TGI,CAKI-1 renal,> 100 µM
same,GI50,CCRF-CEM leukemia,> 100 µM
same,TGI,CCRF-CEM leukemia,> 100 µM
same,GI50,COLO 205 colon,> 100 µM
same,TGI,COLO 205 colon,> 100 µM
same,TGI,DLD-1 colon,> 10 µM
same,GI50,DMS 114 small cell lung,> 100 µM
same,TGI,DMS 114 small cell lung,> 100 µM
same,GI50,DMS 273 small cell lung,> 100 µM
same,TGI,DMS 273 small cell lung,> 100 µM
same,GI50,EKVX NSCLC,> 100 µM
same,TGI,EKVX NSCLC,> 100 µM
same,GI50,HCC-2998 colon,> 100 µM
same,TGI,HCC-2998 colon,> 100 µM
same,TGI,HCT-116 colon,> 10 µM
same,GI50,HCT-15 colon,> 100 µM
same,TGI,HCT-15 colon,> 100 µM
same,GI50,HL-60(TB) leukemia,> 10 µM
same,TGI,HL-60(TB) leukemia,> 100 µM
same,GI50,HOP-18 NSCLC,> 100 µM
same,TGI,HOP-18 NSCLC,> 100 µM
same,GI50,HOP-62 NSCLC,> 100 µM
same,TGI,HOP-62 NSCLC,> 100 µM
same,TGI,HOP-92 NSCLC,> 100 µM
same,TGI,HT29 colon,> 10 µM
same,GI50,IGROV1 ovarian,> 100 µM
same,TGI,IGROV1 ovarian,> 100 µM
same,GI50,K-562 leukemia,> 100 µM
same,TGI,K-562 leukemia,> 100 µM
same,GI50,KM12 colon,> 100 µM
same,TGI,KM12 colon,> 100 µM
same,GI50,KM20L2 colon,> 100 µM
same,TGI,KM20L2 colon,> 100 µM
same,GI50,LOX IMVI melanoma,> 100 µM
same,TGI,LOX IMVI melanoma,> 100 µM
same,GI50,LXFL 529 NSCLC,> 100 µM
same,TGI,LXFL 529 NSCLC,> 100 µM
same,GI50,M14 melanoma,> 100 µM
same,TGI,M14 melanoma,> 100 µM
same,GI50,M19-MEL melanoma,> 100 µM
same,TGI,M19-MEL melanoma,> 100 µM
same,GI50,MALME-3M melanoma,> 100 µM
same,TGI,MALME-3M melanoma,> 100 µM
same,GI50,MOLT-4 leukemia,> 100 µM
